# Tests used:
# Test in all cases: relative viability (nuclei count vs DMSO), 5 days (fraction); higher = more cells survive
# Bortezomib + Dasatinib = compound: CC(C)C[C@H](NC(=O)[C@H](Cc1ccccc1)NC(=O)c1cnccn1)B(O)O [Bortezomib] + Cc1nc(Nc2ncc(C(=O)Nc3c(C)cccc3Cl)s2)cc(N2CCN(CCO)CC2)n1 [Dasatinib] (partner 0.075 µM)
# How it was run: (§1)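 Lung cancer cell lines in 1536-well plates got either a single drug or a fixed anchor-drug dose together with five library-drug doses (not always all listed) in √10 steps, by pin tool, on the day after seeding. Nuclei were counted after 5 days, and relative viability is the treated-to-vehicle ratio of nuclei counts. Values are medians of duplicate plates.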
# [1] = compound: CC1=CC(=NN1)NC2=CC(=NC(=N2)/C=C/C3=CC=CC=C3)N4CCN(CC4)C + CC(=O)Nc1cccc(-n2c(=O)n(C3CC3)c(=O)c3c(Nc4ccc(I)cc4F)n(C)c(=O)c(C)c32)c1 [Trametinib] (partner 0.02 µM)
# How it was run: as §1
# [2] = compound: CC1=CC(=NN1)NC2=CC(=NC(=N2)/C=C/C3=CC=CC=C3)N4CCN(CC4)C + CC1(C)CCC(c2ccc(Cl)cc2)=C(CN2CCN(c3ccc(C(=O)NS(=O)(=O)c4ccc(N[C@H](CCN5CCOCC5)CSc5ccccc5)c(S(=O)(=O)C(F)(F)F)c4)cc3)CC2)C1 [Navitoclax] (partner 0.5 µM)
# How it was run: as §1
# Obatoclax + Pemetrexed = compound: COC1=CC(c2cc3ccccc3[nH]2)=N/C1=C\c1[nH]c(C)cc1C [Obatoclax] + Nc1nc2[nH]cc(CCc3ccc(C(=O)N[C@@H](CCC(=O)O)C(=O)O)cc3)c2c(=O)[nH]1 [Pemetrexed] (partner 0.2 µM)
# How it was run: as §1
Cell Line,relative viability (Bortezomib + Dasatinib; first compound 0.0002 µM),relative viability (Bortezomib + Dasatinib; first compound 0.000632 µM),relative viability (Bortezomib + Dasatinib; first compound 0.002 µM),relative viability (Bortezomib + Dasatinib; first compound 0.006325 µM),relative viability (Bortezomib + Dasatinib; first compound 0.02 µM),relative viability ([1]; first compound 0.08 µM),relative viability ([1]; first compound 0.253 µM),relative viability ([1]; first compound 0.8 µM),relative viability ([1]; first compound 2.53 µM),relative viability ([1]; first compound 8 µM),relative viability ([2]; first compound 0.08 µM),relative viability ([2]; first compound 0.253 µM),relative viability ([2]; first compound 0.8 µM),relative viability ([2]; first compound 2.53 µM),relative viability ([2]; first compound 8 µM),relative viability (Obatoclax + Pemetrexed; first compound 0.01 µM),relative viability (Obatoclax + Pemetrexed; first compound 0.03162 µM),relative viability (Obatoclax + Pemetrexed; first compound 0.1 µM),relative viability (Obatoclax + Pemetrexed; first compound 0.3162 µM),relative viability (Obatoclax + Pemetrexed; first compound 1 µM)
NCI-H1666,0.759,0.845,0.837,0.329,0.326,0.834,0.761,0.875,0.854,0.563,0.951,0.898,0.906,0.64,0.222,0.835,0.775,0.823,0.725,0.633
NCI-H1734,0.469,0.45,0.516,0.112,0.109,0.628,0.601,0.56,0.41,0.121,0.837,0.81,0.8,0.331,0.108,0.419,0.427,0.359,0.415,0.364
NCI-H1755,0.449,0.326,0.418,0.176,0.196,0.78,0.728,0.716,0.66,0.389,0.984,0.98,0.974,0.504,0.155,0.444,0.612,0.433,0.413,0.452
NCI-H1792,0.722,0.59,0.504,0.759,0.443,0.427,0.402,0.396,0.195,0.0298,0.558,0.599,0.611,0.437,0.102,0.909,0.58,0.459,0.799,0.386
NCI-H1793,0.35,0.324,0.381,0.361,0.168,0.405,0.402,0.356,0.167,0.119,0.516,0.446,0.466,0.156,0.131,0.91,0.924,0.727,0.838,0.878
NCI-H1915,0.234,0.329,0.315,0.128,0.0542,0.299,0.181,0.285,0.21,0.106,0.762,0.8,0.779,0.539,0.213,0.486,0.496,0.482,0.535,0.517
NCI-H1944,0.225,0.212,0.222,0.214,0.137,0.433,0.429,0.37,0.318,0.239,1.04,1.08,1.03,0.866,0.266,0.649,0.551,0.638,0.608,0.602
NCI-H1975,0.385,0.266,0.106,0.0685,0.084,0.343,0.333,0.4,0.254,0.105,0.977,1.12,1.08,0.616,0.134,0.298,0.297,0.3,0.309,0.208
NCI-H1993,0.542,0.578,0.577,0.408,0.456,0.506,0.541,0.408,0.616,0.509,0.94,,0.78,0.576,0.489,0.593,0.544,0.727,0.545,0.346
NCI-H2009,0.291,0.254,0.244,0.0687,0.0717,0.309,0.22,0.215,0.139,0.0702,1.19,1.09,1.13,1.12,0.212,0.978,1.05,0.974,0.993,0.471
NCI-H2023,0.59,0.556,0.558,0.124,0.0683,0.522,0.649,0.449,0.0864,0.0663,0.952,1.09,0.874,0.387,0.069,0.3,0.217,0.24,0.188,0.134
NCI-H2085,0.31,0.253,0.207,0.209,0.241,0.594,0.48,0.535,0.261,0.214,1.24,1.19,0.994,0.489,0.315,0.886,1,0.705,0.709,0.298
NCI-H2087,0.684,0.819,0.458,0.0422,0.037,0.155,0.18,0.151,0.072,0.0577,0.974,0.923,1.11,0.247,0.122,0.623,0.675,0.688,0.674,0.473
NCI-H2126,0.58,0.607,0.662,0.254,0.2,0.57,0.534,0.555,0.516,0.346,0.839,0.871,0.806,0.772,0.478,0.661,0.62,0.703,0.704,0.649
NCI-H2170,0.546,0.378,0.502,0.16,0.144,0.932,0.916,0.91,0.671,0.355,0.588,0.574,0.619,0.248,0.159,0.257,0.243,0.266,0.276,0.283
NCI-H2228,0.475,0.464,0.328,0.0587,0.0925,0.518,0.22,0.637,0.106,0.0612,1.11,0.893,0.747,0.0829,0.0768,0.317,0.308,0.367,0.304,0.274
NCI-H2347,0.685,0.353,0.332,0.321,0.219,0.291,0.231,0.264,0.291,0.216,0.762,0.871,0.912,0.496,0.361,0.399,0.419,0.37,0.392,0.38
NCI-H2405,0.18,0.188,0.288,0.16,0.144,0.63,0.397,0.685,0.519,0.147,0.884,0.688,1.13,0.511,0.0864,1.11,1.01,,1.07,0.927
NCI-H3122,0.878,0.873,0.901,0.233,0.0847,0.201,0.167,0.293,0.334,0.257,1,0.996,0.991,0.918,0.896,0.19,0.202,0.2,0.203,0.221
PC-3 [JPC-3],0.961,0.994,0.991,0.199,0.106,0.726,0.744,0.701,0.706,0.417,0.769,0.81,0.762,0.62,0.389,1.07,0.933,0.925,0.645,0.476
PC-14,0.294,0.236,0.168,0.028,0.0371,0.85,0.805,0.835,0.0586,0.038,0.974,1.01,0.928,0.324,0.0445,0.129,0.147,0.125,0.149,0.109
RERF-LC-KJ,0.833,0.695,0.946,0.219,0.234,0.905,0.956,0.928,0.605,0.295,1.05,1.01,0.764,0.361,0.189,0.466,0.461,0.448,0.457,0.45
SK-LU-1,0.17,0.202,0.214,0.0951,0.118,0.502,0.266,0.555,0.229,0.129,0.792,0.905,0.786,0.385,0.0813,0.861,0.984,0.937,0.759,0.415
SK-MES-1,0.375,0.351,0.35,0.124,0.125,0.549,0.646,0.595,0.245,0.137,1.11,1.21,1.15,0.479,0.116,1.02,0.904,0.874,0.776,0.292
SW 1573,0.488,0.867,0.24,0.0568,0.052,0.542,0.636,0.521,0.12,0.0764,0.98,1.06,0.772,0.227,0.0461,0.824,0.938,0.887,0.427,0.196
UMC-11,0.389,0.491,0.439,0.278,0.171,0.682,0.681,0.503,0.162,0.101,0.317,0.312,0.177,0.116,0.0909,0.768,0.808,0.82,0.795,0.433

# From the supplement of paper PMC10307832
